Source: ChEMBL document CHEMBL4732086, “Targeting nuclear protein TDP-43 by cell division cycle kinase 7 inhibitors: A new therapeutic approach for amyotrophic lateral sclerosis” (Eur J Med Chem, 2021)
The source made the active and inactive calls. The calls are words filed in the database; no cut-off is given here.

Columns and labels:
[1] = target: Casein kinase II subunit alpha (Homo sapiens) (UniProt P68400); experiment: Inhibition of recombinant human full length His-tagged CSNK2A1 expressed in baculovirus expression system using serine/threonine-11 peptide as substrate at 10 uM incubated for 60 mins in presence of ATP by Z'-LYTE assay
[2] = target: RAC-alpha serine/threonine-protein kinase (Homo sapiens) (UniProt P31749); experiment: Inhibition of recombinant full length human His-tagged AKT1 using serine/threonine-06 peptide as substrate at 10 uM incubated for 60 mins in presence of ATP by Z'-LYTE assay
[3] = target: T1, Tyrosine-protein kinase JAK3 (Homo sapiens) (UniProt P52333); experiment: Inhibition of recombinant human GST-tagged JAK3 expressed in baculovirus expression system using Tyr-06 peptide as substrate at 10 uM incubated for 60 mins in presence of ATP by Z'-LYTE assay
T1 sequence (whole entry): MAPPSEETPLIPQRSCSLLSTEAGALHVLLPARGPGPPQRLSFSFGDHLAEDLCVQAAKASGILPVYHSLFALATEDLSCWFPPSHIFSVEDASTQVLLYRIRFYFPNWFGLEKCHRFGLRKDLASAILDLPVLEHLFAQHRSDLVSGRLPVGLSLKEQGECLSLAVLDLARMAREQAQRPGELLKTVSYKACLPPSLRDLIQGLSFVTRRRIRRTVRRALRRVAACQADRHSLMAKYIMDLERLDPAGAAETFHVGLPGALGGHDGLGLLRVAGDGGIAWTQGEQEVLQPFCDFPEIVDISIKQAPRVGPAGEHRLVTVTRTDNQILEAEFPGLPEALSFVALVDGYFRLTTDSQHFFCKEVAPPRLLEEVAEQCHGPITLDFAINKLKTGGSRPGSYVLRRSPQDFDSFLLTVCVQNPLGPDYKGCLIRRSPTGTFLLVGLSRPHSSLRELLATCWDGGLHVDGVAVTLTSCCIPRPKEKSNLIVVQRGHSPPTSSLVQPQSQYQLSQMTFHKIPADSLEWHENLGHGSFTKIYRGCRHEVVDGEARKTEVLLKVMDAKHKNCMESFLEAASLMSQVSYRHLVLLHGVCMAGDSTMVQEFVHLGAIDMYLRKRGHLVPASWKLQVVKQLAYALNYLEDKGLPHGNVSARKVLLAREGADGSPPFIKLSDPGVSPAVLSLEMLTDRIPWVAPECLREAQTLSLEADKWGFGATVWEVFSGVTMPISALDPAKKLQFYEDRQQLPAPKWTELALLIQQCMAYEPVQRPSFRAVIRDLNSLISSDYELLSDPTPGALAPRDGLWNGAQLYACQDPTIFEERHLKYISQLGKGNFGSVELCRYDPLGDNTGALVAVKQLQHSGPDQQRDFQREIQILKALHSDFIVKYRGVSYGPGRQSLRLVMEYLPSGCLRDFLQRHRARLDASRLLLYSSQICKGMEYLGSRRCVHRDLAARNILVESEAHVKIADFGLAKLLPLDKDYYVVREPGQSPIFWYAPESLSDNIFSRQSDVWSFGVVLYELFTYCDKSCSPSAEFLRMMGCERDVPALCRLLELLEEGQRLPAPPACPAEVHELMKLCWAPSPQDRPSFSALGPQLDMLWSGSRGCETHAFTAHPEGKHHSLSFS

[4] = target: Cell division cycle 7-related protein kinase (Homo sapiens) (UniProt O00311); experiment: Inhibition of human CDC7 in human SH-SY5Y cells assessed as prevention of ethacrynic acid-induced cell death preincubated for 1 hr followed by incubation with ethacrynic acid for 24 hrs measured at 10 uM by MTT assay relative to control; assay type: cell-based
[5] = target: T2, Aurora kinase A (Homo sapiens) (UniProt O14965); experiment: Inhibition of recombinant human full length AURKA expressed in baculovirus expression system using Ser/Thr-01 peptide as substrate at 10 uM after 1 hr in presence of ATP by Z'LYTE assay
T2 sequence (whole entry): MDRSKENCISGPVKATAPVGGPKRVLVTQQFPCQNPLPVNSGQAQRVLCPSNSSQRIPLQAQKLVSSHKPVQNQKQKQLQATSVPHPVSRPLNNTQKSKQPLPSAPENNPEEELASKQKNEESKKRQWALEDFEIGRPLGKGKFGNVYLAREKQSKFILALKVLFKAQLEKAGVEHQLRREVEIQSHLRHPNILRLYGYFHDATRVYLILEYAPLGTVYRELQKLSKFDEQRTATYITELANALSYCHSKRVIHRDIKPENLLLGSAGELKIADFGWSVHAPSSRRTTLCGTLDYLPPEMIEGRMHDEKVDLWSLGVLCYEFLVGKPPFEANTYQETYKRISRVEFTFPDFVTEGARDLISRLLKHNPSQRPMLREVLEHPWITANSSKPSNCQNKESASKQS

[6] = target: CDC7/DBF4 (Cell division cycle 7-related protein kinase/Activator of S phase kinase) (Homo sapiens) (UniProt Q9UBU7+O00311); experiment: Competitive inhibition of recombinant human full length N-terminal GST tagged CDC7/Dbf4 expressed in baculovirus infected Sf9 insect cells assessed as inhibition of substrate phosphorylation using PDKtide as substrate at 5 to 10 uM measured after 60 mins by ATP assay; settings: dose 5-10 µM
[7] = target: Serine/threonine-protein kinase pim-2 (Homo sapiens) (UniProt Q9P1W9); experiment: Inhibition of recombinant human GST-tagged PIM2 expressed in baculovirus expression system using serine/threonine-07 peptide as substrate at 10 uM by Z'-LYTE assay; settings: time 60.0 min
[8] = target: Serine/threonine-protein kinase MARK1 (Homo sapiens) (UniProt Q9P0L2); experiment: Inhibition of recombinant human full length GST-tagged MARK1 expressed in baculovirus expression system using serine/threonine-21 peptide as substrate at 10 uM by Z'-LYTE assay; settings: time 60.0 min
[9] = target: Aurora kinase B (Homo sapiens) (UniProt Q96GD4); experiment: Inhibition of recombinant full length His-tagged human AURKB expressed in baculovirus expression system using Ser/Thr-01 peptide as substrate at 10 uM incubated for 60 mins in presence of ATP by Z'-LYTE assay

| inhibition [1] | inhibition [2] | inhibition [3] | inhibition [5] | inhibition [6] | inhibition [7] | inhibition [8] | inhibition [9] | SMILES | inhibition [4] |
| --- | --- | --- | --- | --- | --- | --- | --- | --- | --- |
| inactive | inactive | inactive | inactive | Active | inactive | inactive | inactive | c1ccc(CSc2ncnc3[nH]cnc23)cc1 | Active |
| inactive | inactive | inactive | inactive | Active | inactive | inactive | inactive | Clc1cccc(CSc2ncnc3[nH]cnc23)c1 | Active |

| SMILES | inhibition [1] | inhibition [2] | inhibition [3] | inhibition [5] | inhibition [6] | inhibition [7] | inhibition [8] | inhibition [9] | inhibition [4] |
| --- | --- | --- | --- | --- | --- | --- | --- | --- | --- |
| Brc1ccccc1CSc1ncnc2[nH]cnc12 | inactive | inactive | inactive | inactive | Active | inactive | inactive | inactive | Active |
